# Test results taken from patent US7094581B2, “Hyaluronan synthases and methods of making and using same” (The Board of Regents of the University of Oklahoma, priority 1998, dated 2006).
# Like-named read-outs stand apart in the source and are kept apart here.
# Assays:
# wild-type seHAS = assay: Utilization of UDP-GlcUA and UDP-GlcNAc by wild-type seHAS after NEM or sodium arsenite treatment; assay type: biochemical, Streptococcus equisimilis; conditions: membranes 4° C. 1 h with 5 mM NEM or 10 mM sodium arsenite
# Procedure: FIG. 3. Effect of NEM or sodium arsenite treatment on the utilization of UDP-GIcUA and UDP-GIcNAc by wild-type seHAS. E. coli membranes containing seHAS protein were incubated at 4° C. for 1 h in PBS containing 5 mM NEM or 10 mM Sodium Arsenite (SodArs), and the control membranes were incubated with PBS alone. Michaelis-Menten constants (Km) were calculated from the activities of seHAS at varying concentrations of UDP-GIcUA or UDP-GIcNAc.
# Modification of the protein by NEM could affect any one or several of the six discrete functions that HAS must perform in order to synthesize HA. In order to determine if one of the nucleotide-sugar binding sites was affected by NEM, we examined the UDP-GIcUA and UDP-GIcNAc saturation profiles for treated and untreated seHAS (FIG. 3 and Table III).
# E. coli SURE cells transformed with plasmids containing various seHAS mutants were grown in LB medium with vigorous shaking at 32° C. to A600 ˜0.8 and induced with 1 mM isopropyl-β-thiogalactoside for 3 h. Cells were harvested and membranes were prepared as described previously. The kinetic constants for HAS were determined at 37° C. in 100 μl of 50 mM sodium and potassium phosphate, pH 7.0, with 20 mM MgCl2, 1 mM DTE, 240 μM UDP-GIcUA, 0.7 μM UDP-[^14C]GIcUA and 0.6–1.0 mM UDP-GIcNAc. in 100 μl of 25 mM sodium and potassium phosphate, pH 7, containing 50 mM NaCl, 20 mM MgCl2, 1 mM dithiothreitol, 1 mM UDP-GIcUA, 0.68 μM UDP-GIcUA and 1 mM UDP-GIcNAc. Some assays also contained 0.1 mM EDTA and 20% glycerol (v/v). To initiate the enzyme reaction, ˜0.5–40 μg of membrane protein was added and the mixtures were gently shaken in a MicroMixer X-36 (Tiatec) at 30° C. for 1–2 h. Reactions were terminated by the addition of SDS to a final concentration of 2% (w/v). The incorporation of radioactive [^14C]GIcUA was determined by descending paper chromatography and the Km and Vmax values were determined as described by Tlapak-Simmons et al (1999b). Data were analyzed by the methods of Michaelis-Menton or Hill. Protein content was determined by the method of Bradford using bovine serum albumin as the standard. All Cys-mutant or sulfhydryl-treated seHAS samples were assayed in duplicate or triplicate using two or three independent membrane preparations. Results are presented as the mean±standard errors. All enzyme assays were performed under conditions that were linear with respect to time and protein concentration. None of the seHAS variant enzymes were unstable under the conditions employed.
# [1] = system: triple Cys-mutants of seHAS; assay: NEM inactivation of triple Cys-mutants of seHAS and protection by substrates; assay type: biochemical, Streptococcus equisimilis; conditions: 5 mM NEM, 4° C., 10 min
# Procedure: FIG. 6. Substrates protect triple Cys-mutants of seHAS from inactivation by NEM. E. coli membranes containing the indicated triple Cys-mutant of seHAS (each with a single remaining Cys residue) were treated at 4° C. for 10 min with no additions (control; 100% values) or with 5 mM NEM alone and in the presence of either UDP, UDP-GIcUA or UDP-GIcNAc. Unreacted Nem was then quenched and HAS activity was determined. Results are not shown for the mutant containing only Cys^367, since NEM inactivation of this mutant is ˜10% and all values were essentially identical.
# Although the 4 Cys residues in seHAS (positions 226, 262, 281 and 367) are roughly conserved in all Class I HAS family members, the Cys-null mutants of seHAs and spHAS are active, with minimal changes in their kinetics compared to wild type. It is also shown here that neither HAS contains disulfide bonds. To understand why these four cysteines are, nevertheless, largely conserved within the Class I HASs, NEM sensitivity was examined (i.e., the time- and dose-dependent inhibition) of all possible Cys-to-Ala mutants of seHAS. […] Cys281 appears not to be within a UDP-sugar binding site, since the triple Cys-mutant seHAS (A3C)C281 was not protected from NEM inhibition by UDP, UDP-GIcUA or UDP-GIcNAc (FIG. 6).
# Stock solutions (10–100 mM) of NEM, IAA or other sulfhydryl reagents were made in PBS, pH 7.0. […]
compound,measurement,setting,value
CCN1C(=O)C=CC1=O [N-ethylmaleimide],"Vmax of treated wild-type seHAS, UDP-GlcNAc",wild-type seHAS,7.3 ± 2.2 nmol/µg/h
same,"Vmax of treated wild-type seHAS, UDP-GlcUA",wild-type seHAS,7.3 ± 2.2 nmol/µg/h
same,Km,wild-type seHAS; read-out: Km for UDP-GlcNAc of treated wild-type seHAS,82 ± 17 µM
same,Km,wild-type seHAS; read-out: Km for UDP-GlcUA of treated wild-type seHAS,57 ± 5 µM
same,NEM inactivation of the seHAS mutant containing only Cys^367,[1],~10%
